Our source for the relative viability values is the supplement of paper PMC10307832.

Common to all, as to test: relative viability (nuclei count vs DMSO), 5 days (fraction); higher = more cells survive
Compound in test [1]: C1/C(=C\C2=CC=CS2)/C(=O)/C(=C/C3=CC=CS3)/C1 + CCNC(=O)c1noc(-c2cc(C(C)C)c(O)cc2O)c1-c1ccc(CN2CCOCC2)cc1 [Luminespib] (partner 0.01 µM)
In short, it runs like this: (§1)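 Relative viability is defined as nuclei in treated wells over nuclei in vehicle wells. Duplicate plates were run and medians reported. Lung cancer cell lines in 1536-well plates were dosed by pin tool one day after seeding, with one drug or with a fixed anchor-drug dose plus five library-drug doses (not always all listed) in √10 steps, and nuclei were counted after 5 days.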

Compound in test [2]: C1=CC(=CC=C1C2=CC(=C(S2)NC(=O)N)C(=O)N)F [TPCA-1] + Cc1nc(Nc2ncc(C(=O)Nc3c(C)cccc3Cl)s2)cc(N2CCN(CCO)CC2)n1 [Dasatinib] (partner 0.075 µM)
The method, boiled down:
as §1

Compound in test [3]: C1/C(=C\C2=CC=CS2)/C(=O)/C(=C/C3=CC=CS3)/C1 + Nc1ncn([C@H]2C[C@H](O)[C@@H](CO)O2)c(=O)n1 [Decitabine] (partner 2 µM)
In short, it runs like this: as §1

Compound in test [4]: C1=CC(=CC=C1C2=CC(=C(S2)NC(=O)N)C(=O)N)F [TPCA-1] + CC(C)C[C@H](NC(=O)[C@H](Cc1ccccc1)NC(=O)c1cnccn1)B(O)O [Bortezomib] (partner 0.002 µM)
The method, boiled down:
as §1

As for UMC-11, the relative viability in test [1] (first compound 0.2 µM) was found to be 1.02; in test [1] (first compound 0.6325 µM), 0.978; in test [1] (first compound 20 µM), 1.05; in test [2] (first compound 0.04 µM) it was 0.494; in test [2] (first compound 0.1265 µM), 0.443; in test [2] (first compound 0.4 µM), 0.494. Besides, the relative viability turned out to be 0.457 in test [2] (first compound 1.265 µM); 0.222 in test [2] (first compound 4 µM); 0.752 in test [3] (first compound 0.2 µM); 0.653 in test [3] (first compound 0.6325 µM); 0.637 in test [3] (first compound 2 µM); 0.513 in test [3] (first compound 6.325 µM). Further, the relative viability was found to be 0.515 in test [3] (first compound 20 µM); 0.663 in test [4] (first compound 0.04 µM); 0.667 in test [4] (first compound 0.1265 µM); 0.798 in test [4] (first compound 0.4 µM); 0.735 in test [4] (first compound 1.265 µM); 0.134 in test [4] (first compound 4 µM).
